{"source": "ChEMBL document CHEMBL1124762", "about": "“Potential antitumor agents. 60. Relationships between structure and in vivo colon 38 activity for 5-substituted 9-oxoxanthene-4-acetic acids” (1990)", "format_in_all_cases": "functional, Mus musculus", "key": {"MC-38 [1]": {"test_system": "MC-38", "assay": "Optimal dose 24 hr after intraperitoneal administration against C38 colon tumor cells in mice."}, "MC-38 [2]": {"test_system": "MC-38", "assay": "Percent necrosis activity against subcutaneous C38 colon tumor cells in vivo; range is 50-90%"}, "MC-38 [3]": {"test_system": "MC-38", "assay": "Percent necrosis activity against subcutaneous C38 colon tumor cells in vivo", "design": "concentration or dose not given beside the values"}}}
{"smiles": "O=C(O)Cc1cccc2c(=O)c3cccc(CC(=O)O)c3oc12", "values": [{"measurement": "OD", "setting": "MC-38 [1]", "result": 330, "unit": "mg/kg"}]}
{"smiles": "O=C(O)Cc1cccc2c(=O)c3cccc([N+](=O)[O-])c3oc12", "values": [{"measurement": "OD", "setting": "MC-38 [1]", "result": 330, "unit": "mg/kg"}, {"measurement": "Activity", "setting": "MC-38 [2]", "result": 90, "unit": "%"}]}
{"smiles": "O=C(O)Cc1cccc2c(=O)c3ccccc3oc12", "values": [{"measurement": "OD", "setting": "MC-38 [1]", "result": 220, "unit": "mg/kg"}, {"measurement": "Activity", "setting": "MC-38 [3]", "result": ">90", "unit": "%"}]}
{"smiles": "COc1cccc2c(=O)c3cccc(CC(=O)O)c3oc12", "values": [{"measurement": "OD", "setting": "MC-38 [1]", "result": 150, "unit": "mg/kg"}, {"measurement": "Activity", "setting": "MC-38 [2]", "result": 90, "unit": "%"}]}
{"smiles": "CC(=O)Nc1cccc2c(=O)c3cccc(CC(=O)O)c3oc12", "values": [{"measurement": "OD", "setting": "MC-38 [1]", "result": 330, "unit": "mg/kg"}]}
{"smiles": "O=C(O)Cc1cccc2c(=O)c3cccc(C(F)(F)F)c3oc12", "values": [{"measurement": "OD", "setting": "MC-38 [1]", "result": 220, "unit": "mg/kg"}, {"measurement": "Activity", "setting": "MC-38 [2]", "result": 90, "unit": "%"}]}
{"smiles": "CCc1cccc2c(=O)c3cccc(CC(=O)O)c3oc12", "values": [{"measurement": "OD", "setting": "MC-38 [1]", "result": 100, "unit": "mg/kg"}, {"measurement": "Activity", "setting": "MC-38 [3]", "result": ">90", "unit": "%"}]}
{"smiles": "Nc1cccc2c(=O)c3cccc(CC(=O)O)c3oc12", "values": [{"measurement": "OD", "setting": "MC-38 [1]", "result": 1125, "unit": "mg/kg"}, {"measurement": "Activity", "setting": "MC-38 [2]", "result": 90, "unit": "%"}]}
{"smiles": "O=C(O)Cc1cccc2c(=O)c3cccc(O)c3oc12", "values": [{"measurement": "OD", "setting": "MC-38 [1]", "result": 330, "unit": "mg/kg"}]}
{"smiles": "CCOc1cccc2c(=O)c3cccc(CC(=O)O)c3oc12", "values": [{"measurement": "OD", "setting": "MC-38 [1]", "result": 330, "unit": "mg/kg"}, {"measurement": "Activity", "setting": "MC-38 [3]", "result": ">90", "unit": "%"}]}
{"smiles": "O=C(O)Cc1cccc2c(=O)c3cccc(F)c3oc12", "values": [{"measurement": "OD", "setting": "MC-38 [1]", "result": 330, "unit": "mg/kg"}]}
{"smiles": "CCCCOc1cccc2c(=O)c3cccc(CC(=O)O)c3oc12", "values": [{"measurement": "OD", "setting": "MC-38 [1]", "result": 220, "unit": "mg/kg"}, {"measurement": "Activity", "setting": "MC-38 [2]", "result": 90, "unit": "%"}]}
{"smiles": "O=C(O)Cc1cccc2c(=O)c3cccc(-c4ccccc4)c3oc12", "values": [{"measurement": "OD", "setting": "MC-38 [1]", "result": 750, "unit": "mg/kg"}]}
{"smiles": "Cc1cccc2c(=O)c3cccc(CC(=O)O)c3oc12", "values": [{"measurement": "OD", "setting": "MC-38 [1]", "result": 45, "unit": "mg/kg"}, {"measurement": "Activity", "setting": "MC-38 [3]", "result": ">90", "unit": "%"}]}
{"smiles": "O=C(O)Cc1cccc2c(=O)c3cccc(Br)c3oc12", "values": [{"measurement": "OD", "setting": "MC-38 [1]", "result": 100, "unit": "mg/kg"}]}
{"smiles": "CCCOc1cccc2c(=O)c3cccc(CC(=O)O)c3oc12", "values": [{"measurement": "OD", "setting": "MC-38 [1]", "result": 150, "unit": "mg/kg"}, {"measurement": "Activity", "setting": "MC-38 [2]", "result": 90, "unit": "%"}]}
{"smiles": "O=C(O)Cc1cccc2c(=O)c3cccc(Cl)c3oc12", "values": [{"measurement": "OD", "setting": "MC-38 [1]", "result": 150, "unit": "mg/kg"}, {"measurement": "Activity", "setting": "MC-38 [3]", "result": ">90", "unit": "%"}]}
{"smiles": "O=C(O)Cc1cccc2c(=O)c3cccnc3oc12", "values": [{"measurement": "OD", "setting": "MC-38 [1]", "result": 750, "unit": "mg/kg"}]}
